# Laboratory results published in patent US20080171710A1, “The Redox/Fyn/c-Cbl Pathway” (priority 2007, published 2008).
# Read-outs that look alike come from different tables or passages of the source.
# Key:
# Erk1/2 = assay type: cell-based, rat; settings: for PDGF-induced Erk1/2 phosphorylation after toxicant exposure: 30 nM MeHg 24 h, 1 μM Pb, 5 μM paraquat
# Description: Cells were deprived of PDGF-AA for 5 h before re-exposure to PDGF-AA (10 ng/ml) for 1 h for Western blot or 6 h for luciferase assays of pathway activation. Transient transfection was performed using Fugene6 (Roche, Basel, Switzerland ) transfection solution according to the manufacturer's protocol. For the luciferase assay, cells seeded in 12-well plates were transfected with a reporter plasmid SRE-Luc(firefly) or NF-κB-Luc(firefly) (BD-Clontech, Palo Alto, Calif., United States) and an internal control plasmid pRLSV40-LUC. Analyses of luciferase activity were performed according to the protocol of the Dual Luciferase Assay System (Promega, Madison, Wis., United States), which uses an internal control of Renilla luciferase for quantification, and relative light units were measured using a luminometer.
# (§1) Anti-phosphorylated Erk monoclonal, anti-Erk monoclonal, anti-TrkC polyclonal anti-Fyn polyclonal, anti-EGFR polyclonal, anti-c-Met polyclonal, anti-phospho-tyrosine monoclonal, and anti-PDGFRα polyclonal antibodies were obtained from Santa Cruz Biotechnology (Santa Cruz, Calif., United States). Anti-c-Cbl monoclonal antibody was obtained from BD PharMingen (San Diego, Calif., United States). Anti-phosphorylated Akt monoclonal and anti-Akt polyclonal antibodies were obtained from Cell Signaling Technology (Beverly, Mass., United States). Anti-phosphorylated PDGPRα polyclonal antibody was obtained from Biosource (Carlsbad, Calif., United States). The cell culture samples were collected and lysed in RAPI buffer, whereas dissected tissue samples were sonicated in RAPI buffer. Samples were resolved on SDS-PAGE gels and transferred to PVDF membranes (PerkinElmer Life Science. Wellesley, Mass., United States), After being blocked in 5% skim milk in PBS containing 0.1% Tween 20, membranes were incubated with a primary antibody, followed by incubation with an HRP-conjugated secondary antibody (Santa Cruz Biotechnology). Membranes were visualized using Western Blotting Luminol Reagent (Santa Cruz Biotechnology). All analyses of signaling pathway components were conducted in the presence of ligand for the receptor pathway under analysis (either PDGF-AA for PDGFRα, NT-3 or TrkC, HGF for c-Met, or EGF for EGFR).
# PDGFRα [1] = assay: PDGFRα phosphorylation (Western blot, anti-PDGFRα(pY742)); assay type: cell-based, rat; settings: for phosphorylation of PDGFRα after toxicant exposure: 30 nM MeHg, 1 μM Pb, 5 μM paraquat
# Text: The cells were then collected and lysed for Western blotting. […] Cells were lysed for Western blot analysis using anti-PDGFRα(pY742) antibody. The membranes were de-probed and then re-probed with antibody against total PDGFRα and anti-β-tubulin antibody. […]
# as §1
# PDGFRα [2] = assay type: cell-based, rat; settings: for total levels of PDGFRα after toxicant exposure: MeHg 30 nM, 1 μM Pb, 5 μM paraquat; for levels of PDGFRα: tamoxifen (100 nM; time course 4, 12, 24 hours)
# Fyn = molecular target: T1, Fyn (Rattus norvegicus, UniProt Q62844); assay type: cell-based; settings: for Fyn activation after toxicant exposure: 30 nM MeHg, 1 μM Pb, 5 μM paraquat
# T1 construct: 250 μg of total cell lysates were immunoprecipitated with anti-Fyn antibody; endogenous in cells; host or cells: primary rat O-2A/OPCs
# T1 sequence (Q62844 whole entry): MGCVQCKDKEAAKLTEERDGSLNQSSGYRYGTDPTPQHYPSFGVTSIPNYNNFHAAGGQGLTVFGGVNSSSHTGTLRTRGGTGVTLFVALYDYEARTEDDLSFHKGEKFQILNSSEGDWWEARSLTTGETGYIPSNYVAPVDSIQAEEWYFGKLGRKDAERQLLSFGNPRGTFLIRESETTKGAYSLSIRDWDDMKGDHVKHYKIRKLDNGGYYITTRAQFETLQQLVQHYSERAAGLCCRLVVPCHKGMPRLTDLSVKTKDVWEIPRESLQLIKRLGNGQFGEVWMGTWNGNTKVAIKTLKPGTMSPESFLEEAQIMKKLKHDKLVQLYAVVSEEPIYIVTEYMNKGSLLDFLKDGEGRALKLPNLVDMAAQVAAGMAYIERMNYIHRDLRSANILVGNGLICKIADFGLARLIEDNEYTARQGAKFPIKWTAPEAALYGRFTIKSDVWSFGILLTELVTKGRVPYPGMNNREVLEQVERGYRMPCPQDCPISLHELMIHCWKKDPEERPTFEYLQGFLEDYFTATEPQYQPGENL
# Description: Fyn kinase activity was quantified using the Universal Tyrosine Kinase Assay Kit (Takara, Madison, Wis., United States). O-2A/OPCs exposed to different treatments were solubilized with an equal volume of the extraction buffer provided with the kit for 15 min, and the resulting lysates were centrifuged at 13,000×g for 15 min at 4° C.; 250 μg of total cell lysates were immunoprecipitated with anti-Fyn antibody (Santa Cruz Biotechnology). Following immunoprecipitation, Fyn immune complexes were washed four times with extraction buffer, and then Fyn kinase activities of each sample were assayed using the kit according to the manufacturer's instructions.
# c-Cbl = assay type: cell-based, rat; settings: for c-Cbl phosphorylation after toxicant exposure: 30 nM MeHg, 1 μM Pb, 5 μM paraquat
# Description: (§2) For the co-immunoprecipitation assay, anti-c-Cbl monoclonal antibody (BD PharMingen) or anti-PDGFRα polyclonal antibody (Santa Cruz Biotechnology) was added to the pre-cleared cell lysates (250 μg of total protein), and the mixtures were gently rocked for 2 h at 4° C. A total of 30 μl of protein A/G agarose was then added to the mixture followed by rotating at 4° C. overnight. The protein A/G agarose was then spun down and washed thoroughly three times. The precipitates were resolved on an 8% SDS-PAGE gel and then were subjected to Western blot analysis using an anti-p-Tyr (for c-Cbl phosphorylation assay) or ubiquitin (for PDGFR ubiquitylation assay) antibody (Santa Cruz Biotechnology).
# PDGFRα [3] = assay: PDGFR ubiquitylation (immunoprecipitation assay); assay type: cell-based, rat; settings: co-exposure with MeHg
# Description: as §2
# O-2A/OPCs [4] = assay: Intracellular ROS / redox state measurement; assay type: cell-based, rat; settings: 1 μM Pb or 5 μM paraquat; dyes dihydro-chloromethyl-rosamine or dihydro-calcein-AM
# Description: Cells were plated in 96-well microplates and grown to about 60% continence. […] Cells were then washed once with HBSS and growth medium to remove free probe. Then, fresh growth medium was added and a baseline fluorescence reading was taken prior to treatment. For NAC pre-treatment. […] Fluorescence was measured in a Wallac 1420 Victor2 multilabel counter (PerkinElmer) using excitation and emission wavelengths of 485 nm and 535 nm, respectively, at different time courses as indicated in the figures. Results are presented as the value change from baseline by the formula (Ftexp−Ftbase)/Ftbase normalized with the control group, where Ftexp=fluorescence at any given time during the experiment in a give well and Ftbase=baseline fluorescence of the same well.
# EGFR = assay type: cell-based, rat; settings: for levels of EGFR after toxicant exposure: MeHg, Pb or paraquat
# Text: as §1
# TrkC = assay type: cell-based, rat; settings: for levels of TrkC after toxicant exposure: MeHg, Pb or paraquat
# Text: as §1
# c-Met = assay type: cell-based, rat; settings: for levels of c-Met after toxicant exposure: MeHg, Pb or paraquat
# Text: as §1
# O-2A/OPCs [5] = assay: Cell death of O-2A/OPCs on exposure; assay type: cell-based, rat; settings: MeHg at lower concentrations (not above 50 nM); 1 μM Pb; 5 μM paraquat
# Description: To generate sufficient numbers of cells for biochemical analysis, cells, were expanded through one to two passages in PDGF+FGF-2 before replating in the presence of PDGF alone. When cells achieved approximately 50% confluence, MeHg, Pb, or paraquat was added to their medium at concentrations indicated. Doses for the toxicants were chosen on the basis of dose-response curves to identify sub-lethal exposure levels, as a reflection of blood and brain toxicant levels of these compounds and, where applicable, on the basis of previous reports. All toxicant concentrations examined were confirmed to cause death of less than 5% of cells over the time course of the experiment.
# O-2A/OPCs [6] = assay: In vitro BrdU incorporation assay; assay type: cell-based, rat; settings: TMX 10 nM, 100 nM and 1 μM, 2 days
# Description: Cell proliferation was assessed by bromodeoxyuridine (BrdU) incorporation and by using the mouse anti-BrdU mAb IgGl (1:100; Sigma) to label dividing cells. Stained cells on cover slips were rinsed two times in 1×PBS, counterstained with 4′6-diamidino-2-phenylindole (DAPI; Molecular Probes, Eugene, Oreg., United States) and mounted on glass slides with Fluoromount (Molecular Probes). Staining against surface proteins was performed on cultures of living cells or on cells fixed with 2% paraformaldehyde. Staining with intracellular antibodies was performed by permeabilizing cells with ice-cold methanol for 4 min or by using 0.5% Triton for 15 mm on 2% parafomaldhyde-fixed cells. Antibody binding was detected with appropriate fluorescent dye-conjugated secondary antibodies at 10 μg/ml (Southern Biotech, Birmingham, Ala., United States) or Alexa Fluor-coupled antibodies at a concentration of 1 μg/ml (Molecular Probes), applied for 20 min. Anti-BrdU monoclonal antibody was obtained from Sigma.
# MDA-MB-231 cell = MDA-MB-231 cell division by BrdU incorporation; assay type: cell-based; settings: 20 μM tamoxifen, 48 hours
# Description: It has been reported that c-Cbl induced down-regulation of EGFR is disabled in cancer cells (Hirsch DS, Shen. Y, Wu WJ, (2006) Cancer Res. Apr 1;66(7):3523-30). Thus, growth and motility inhibition of breast cancer cells by EGFR degradation is correlated with inaetivation of Cdc42. […] Cells were cultured in phenol red-free growth media and exposed to TMX (0, 1 μM, 10 μM, 20 μM and 50 μM) for 48 hours, with or without 1 mM NAC. In FIG. 22C. MDA-MB-231 cell division was analyzed by BrdU incorporation analysis. […] Percentage of Brdu+ cells from DAPI+ cells was determined in each sample.
SMILES,cells more oxidized (intracellular redox state) (O-2A/OPCs [4]),PDGF-induced Erk1/2 phosphorylation after toxicant exposure (Erk1/2),phosphorylation of PDGFRα after toxicant exposure (PDGFRα [1]),total levels of PDGFRα after toxicant exposure (PDGFRα [2]),levels of EGFR after toxicant exposure (EGFR),levels of TrkC after toxicant exposure (TrkC),levels of c-Met after toxicant exposure (c-Met),Fyn activation after toxicant exposure (Fyn),c-Cbl phosphorylation after toxicant exposure (c-Cbl),cell death at the concentrations used (O-2A/OPCs [5]),other results
"Cl.N [NH4Cl, ammonium chloride]",–,–,–,–,–,–,–,–,–,–,effect on Aβ(1-42) suppression of PDGF-mediated Erk1/2 phosphorylation (Erk1/2; co-exposure with Aβ(1-42)): not; effect on MeHg-associated suppression of Erk1/2 phosphorylation (Erk1/2; co-treatment with MeHg): blocked; effect on MeHg-induced suppression of PDGFRα phosphorylation (PDGFRα [1]; co-exposure with MeHg): protected; effect on Aβ-induced reduction in PDGFRα levels (PDGFRα [2]; co-exposure with Aβ): blocked; effect on MeHg-induced reductions in levels of PDGFRα (PDGFRα [2]; together with MeHg): blocked; effect on MeHg-induced Fyn activation (Fyn; added 1 h before MeHg): lack of effect; effect on MeHg-induced c-Cbl phosphorylation (c-Cbl; added 1 h before MeHg): lack of effect; effect on Aβ-induced increase in phosphorylated c-Cbl (c-Cbl; co-exposure with Aβ): not blocked; levels of ubiquitylated PDGFRα in MeHg-treated cells (PDGFRα [3]): increased levels of ubiquityiated receptor
"[Pb] [Pb, lead]",approximately 20%,reduced levels of Erk1/2 phosphorylation,reduced,reduced,also reduced,neither Pb or paraquat caused a reduction,also reduced,activation of Fyn,increased phosphorylation of c-Cbl,did not cause cell death,–
C[n+]1ccc(-c2cc[n+](C)cc2)cc1 [paraquat],approximately 20%,reduced levels of Erk1/2 phosphorylation,reduced,reduced,also reduced,neither Pb or paraquat caused a reduction,also reduced,activation of Fyn,increased phosphorylation of c-Cbl,did not cause cell death,–
CC/C(=C(\c1ccccc1)c1ccc(OCCN(C)C)cc1)c1ccccc1 [tamoxifen],–,–,–,–,–,–,–,–,–,–,"O-2A/OPC division (O-2A/OPCs [6]): Suppression; levels of phosphorylated PDGFRα (PDGFRα [1]; TMX exposure 4, 12, 24 hours): parallel reduction over time; levels of PDGFRα (PDGFRα [2]): causes reductions; levels of PDGFRα (PDGFRα [2]; listed as TMX): parallel reduction over time; levels of EGFR (EGFR; TMX exposure): decreased; levels of Trk (non-c-Cbl target) (TrkC; TMX treatment): no differences; levels of c-Met (c-Met; TMX exposure): decreased; c-Cbl activation (c-Cbl; 100 nM tamoxifen): activates; reduction in cell division (MDA-MB-231 cell): ~10%"
